Results published in US20070167408A1, “NOVEL ALKYL PHOSPHOLIPID DERIVATIVES WITH REDUCED CYTOTOXICITY AND USES THEREOF” (ZENTARIS GmbH, priority 2005, published 2007).
In brackets after ≈: the same amount, converted by molar mass.

What was measured:
[1] = system: Cryptococcus gattii ATCC 32608; assay: Anti-fungal broth microdilution (MIC), fungus J; assay type: cell-based; details: yeast protocol, more than 80% inhibition, 48 h
Summary of the method: (§1)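 Broth microdilution per NCCLS M27-A (yeasts) and M38-A (filamentous fungi), compounds tested from 64 down to 0.125 μg/ml against 10^6 CFU/ml inocula. For filamentous fungi, MIC read after 48 to 72 h at 35° C as the concentration giving more than 50% visible growth inhibition.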

[2] = system: Plasmodium faiciparum (strain 3D7); assay: In vitro drug activity assay, protozoon D; assay type: cell-based, Plasmodium falciparum; details: strain 3D7, 3[H]-hypoxanthine method
Protocol: In vitro activity of selected compounds of the invention against different protozoa was assessed as follows.
Plasmodium falciparum strain K1 and strain 3D7 parasites were cultured according to Trager W and Jensen J B (Science 1976, 193: 673-675). In vitro drug susceptibility assays with the test compounds were carried out according to Korsinczky M et al. (Antimicrobial agents and chemotherapy 2000, 44(8): 2100-2108) and Fivelman Q L et al. (Antimicrobial agents and chemotherapy 2004, 48(11): 4097-4102) using a ^3[H]-hypoxanthine radioisotope method. ED50 values were calculated with Msxlfit (IDBS).
The following protozoa were assessed: • A) Trypanosoma cruzi (Tulahuan-LACZ amstigotes in PEM, Lorente S O et al., Antimicrobial agents and chemotherapy 2004, 48(8): 2937-2950; Buckner et al., Infection and Immunity 1999, 67(1): 403-409; Buckner et al., Antimicrobial Agents and Chemotherapy 1996, 40(11): 2592-2597) • B) Trypanosoma brucei rhodesiense (strain STIB900, Lorente S O et al., Antimicrobial agents and chemotherapy 2004, 48(8): 2937-2950; Habtemariam S, BMC Pharmacology 2003, 3:6) • C) Plasmodium falciparum (strain K1, Korsinczky M et al., Antimicrobial agents and chemotherapy 2000, 44(8): 2100-2108; Thaitong S and Beale G H, Trans. R. Soc. Trop. Med. Hyg. 1981, 75: 271-273; Trager W and Jensen J B, Science 1976, 193: 673-675) • D) Plasmodium faiciparum (strain 3D7, Mu et al., PLoS Biology 2005, 3(10): e335)

[3] = system: Cryptococcus neoformans H99; assay: Anti-fungal broth microdilution (MIC), fungus I; assay type: cell-based; details: yeast protocol, more than 80% inhibition, 48 h
Summary of the method: as §1

[4] = system: PC3 (human prostate carcinoma) cells; assay: XTT cytotoxicity assay, PC3 cells; assay type: cell-based; details: 31.6 μM, second set of experiments
Summary of the method: (§2)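 Cells recovered 24 h after plating, then exposed to compounds for 48 h at 37 °C; one set used 10 semi-log concentrations from 100 μM, another 31.6 μM final for PC3 and RKOp21. XTT-PMS added for 3 h, formazan absorbance at 490 nm versus untreated cells; IC50 from inhibition curves.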

[5] = system: Aspergillus fumigatus 322-384; assay: Anti-fungal broth microdilution (MIC), fungus B; assay type: cell-based; details: filamentous protocol, more than 50% growth inhibition, 48 to 72 h
Summary of the method: as §1

[6] = system: RKOp21 (human colon adenocarcinoma) cells; assay: XTT cytotoxicity assay, RKOp21 cells; assay type: cell-based; details: 31.6 μM, second set of experiments
Summary of the method: as §2

| SMILES | MIC, fungus J [1] | ED50 (μg/mL), protozoon D [2] | MIC, fungus I [3] | PC3 % INH [31.6 μM] [4] | MIC, fungus B [5] | RKOp21 % INH [31.6 μM] [6] | inhibition at 31.6 µM ([4]; Homo sapiens, PC-3, read-out: PC3 % INH [31.6 μM]) | inhibition at 31.6 µM ([6]; Homo sapiens, read-out: RKOp21 % INH [31.6 μM]) |
| --- | --- | --- | --- | --- | --- | --- | --- | --- |
| CCCCCCCCCCCCCCCCOP(=O)([O-])OCC[N+]1(C)CCCCC1 [Compound 2, Phosphoric acid hexadecyl ester 2-(1-methyl-piperidin-1-yl)-ethyl ester] | 0.75 µg/mL (≈ 1.68 µM) | 2.21 µg/mL (≈ 4.94 µM) | 1 µg/mL (≈ 2.23 µM) | 50.1% | 2 µg/mL (≈ 4.47 µM) | 38.8% | – | – |
| CCCCCCCCCCCCCCCCOP(=O)([O-])OCC[N+](C)(C)C [miltefosine, hexadecylphosphocholine, reference compound] | – | – | – | – | – | – | 67.4% | 64% |
